Test results from PubChem BioAssay (NCI).
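Following 48 hours of exposure in 96-well plates, responses at five concentrations were used to interpolate endpoints linearly. TGI marks complete inhibition of growth.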

How the values were obtained:
Assay in all cases: inhibition of tumour cell growth, NCI panel, 48 h
[1] = test system: HOP-92 NSCLC
[2] = test system: ACHN renal
[3] = test system: EKVX NSCLC
[4] = test system: LXFL 529 NSCLC
[5] = test system: M14 melanoma
[6] = test system: MOLT-4 leukemia
[7] = test system: OVCAR-8 ovarian
[8] = test system: UACC-257 melanoma
[9] = test system: SNB-75 CNS
[10] = test system: HL-60(TB) leukemia
[11] = test system: HOP-62 NSCLC
[12] = test system: HCC-2998 colon
[13] = test system: CAKI-1 renal
[14] = test system: NCI-H522 lung
[15] = test system: RPMI-8226 leukemia
[16] = test system: OVCAR-4 ovarian
[17] = test system: HT29 colon
[18] = test system: SR leukemia
[19] = test system: SN12C renal
[20] = test system: TK-10 renal
[21] = test system: KM12 colon
[22] = test system: M19-MEL melanoma
[23] = test system: COLO 205 colon
[24] = test system: SK-MEL-28 melanoma
[25] = test system: A549 NSCLC
[26] = test system: OVCAR-5 ovarian
[27] = test system: SF-539 CNS
[28] = test system: SK-MEL-2 melanoma
[29] = test system: A498 renal
[30] = test system: U251 CNS
[31] = test system: KM20L2 colon
[32] = test system: 786-0 renal
[33] = test system: DMS 114 small cell lung
[34] = test system: UACC-62 melanoma
[35] = test system: HCT-116 colon
[36] = test system: NCI-H460 lung
[37] = test system: XF 498 CNS
[38] = test system: UO-31 renal
[39] = test system: MALME-3M melanoma
[40] = test system: SF-295 CNS
[41] = test system: CCRF-CEM leukemia
[42] = test system: SK-MEL-5 melanoma
[43] = test system: SNB-19 CNS
[44] = test system: IGROV1 ovarian
[45] = test system: SK-OV-3 ovarian
[46] = test system: SNB-78 CNS
[47] = test system: HCT-15 colon
[48] = test system: K-562 leukemia
[49] = test system: SF-268 CNS
[50] = test system: NCI-H23 lung
[51] = test system: RXF 393 renal
[52] = test system: NCI-H226 lung
[53] = test system: SW-620 colon
[54] = test system: DLD-1 colon
[55] = test system: LOX IMVI melanoma
[56] = test system: DMS 273 small cell lung
[57] = test system: OVCAR-3 ovarian
[58] = test system: HOP-18 NSCLC
[59] = test system: RXF-631 renal

**Q.** Which results are given for `O=C1C2C3CCC(C2C(=O)N1CO)C1C2C(=O)N(CO)C(=O)C2C31` (stereo unspecified)?
**A.** TGI [1]: > 100 µM; TGI [2]: > 63 µM; TGI [3]: > 100 µM; TGI [4]: > 100 µM; TGI [5]: > 100 µM; TGI [6]: 67.7 µM; TGI [7]: > 67.6 µM; TGI [8]: > 100 µM; TGI [9]: > 100 µM; TGI [10]: 31.1 µM; TGI [11]: > 100 µM; TGI [12]: > 100 µM; TGI [13]: > 100 µM; TGI [14]: > 100 µM; TGI [15]: 47.7 µM; TGI [16]: > 58.8 µM; TGI [17]: > 100 µM; TGI [18]: 36.7 µM; TGI [19]: > 69.2 µM; TGI [20]: > 100 µM; TGI [21]: > 100 µM; TGI [22]: > 100 µM; TGI [23]: > 59.6 µM; TGI [24]: > 100 µM; TGI [25]: > 67.6 µM; TGI [26]: > 100 µM; TGI [27]: > 85.3 µM; TGI [28]: > 100 µM; TGI [29]: > 100 µM; TGI [30]: > 56.2 µM; TGI [31]: > 79.8 µM; TGI [32]: > 61.3 µM; TGI [33]: > 59.5 µM; TGI [34]: > 100 µM; TGI [35]: > 54.2 µM; TGI [36]: > 54.5 µM; TGI [37]: > 100 µM; TGI [38]: > 100 µM; TGI [39]: > 100 µM; TGI [40]: > 100 µM; TGI [41]: 48.2 µM; TGI [42]: 98.9 µM; TGI [43]: > 100 µM; TGI [44]: > 100 µM; TGI [45]: > 100 µM; TGI [46]: > 100 µM; TGI [47]: > 60.4 µM; TGI [48]: > 75.2 µM; TGI [49]: > 86.3 µM; TGI [50]: > 100 µM; TGI [51]: > 68.6 µM; TGI [52]: > 100 µM; TGI [53]: > 67.5 µM; TGI [54]: > 65.6 µM; TGI [55]: > 61.9 µM; TGI [56]: > 58.1 µM; TGI [57]: > 100 µM; TGI [58]: 34.2 µM

**Q.** Which TGI [2] does the source give for `NC(N)=NCCCC(NCc1c2ccccc2[n+]([O-])c2ccccc12)C(=O)O` (stereo unspecified) here?
**A.** > 100 µM

**Q.** What about the TGI [3] of the same compound?
**A.** > 100 µM

**Q.** What about the TGI [4] of the same compound?
**A.** > 100 µM

**Q.** And the TGI [5]?
**A.** > 100 µM

**Q.** And the TGI [6]?
**A.** > 100 µM

**Q.** And the TGI [7]?
**A.** > 100 µM

**Q.** And the TGI [8]?
**A.** > 100 µM

**Q.** And the TGI [9]?
**A.** 88.7 µM

**Q.** And the TGI [10]?
**A.** 58.7 µM

**Q.** What about the TGI [11] of the same compound?
**A.** > 100 µM

**Q.** What about the TGI [12] of the same compound?
**A.** > 100 µM

**Q.** What about the TGI [13] of the same compound?
**A.** > 100 µM

**Q.** And the TGI [14]?
**A.** > 100 µM

**Q.** And the TGI [15]?
**A.** 96.2 µM

**Q.** What about the TGI [16] of the same compound?
**A.** > 100 µM

**Q.** What about the TGI [17] of the same compound?
**A.** > 100 µM

**Q.** And the TGI [19]?
**A.** > 100 µM

**Q.** And the TGI [20]?
**A.** > 100 µM

**Q.** What about the TGI [21] of the same compound?
**A.** > 100 µM

**Q.** What about the TGI [23] of the same compound?
**A.** > 100 µM

**Q.** What about the TGI [24] of the same compound?
**A.** > 100 µM

**Q.** What about the TGI [25] of the same compound?
**A.** > 100 µM

**Q.** And the TGI [26]?
**A.** > 100 µM

**Q.** And the TGI [28]?
**A.** > 100 µM

**Q.** And the TGI [29]?
**A.** > 100 µM

**Q.** And the TGI [30]?
**A.** > 100 µM

**Q.** What about the TGI [31] of the same compound?
**A.** > 100 µM

**Q.** And the TGI [32]?
**A.** > 100 µM

**Q.** And the TGI [33]?
**A.** > 100 µM

**Q.** And the TGI [34]?
**A.** > 100 µM

**Q.** What about the TGI [35] of the same compound?
**A.** > 100 µM

**Q.** And the TGI [36]?
**A.** > 100 µM

**Q.** What about the TGI [38] of the same compound?
**A.** 89.8 µM

**Q.** And the TGI [39]?
**A.** > 100 µM

**Q.** What about the TGI [40] of the same compound?
**A.** > 100 µM

**Q.** What about the TGI [41] of the same compound?
**A.** 83.3 µM

**Q.** And the TGI [42]?
**A.** > 100 µM

**Q.** And the TGI [43]?
**A.** > 100 µM

**Q.** What about the TGI [44] of the same compound?
**A.** > 100 µM

**Q.** And the TGI [45]?
**A.** > 100 µM

**Q.** What about the TGI [46] of the same compound?
**A.** > 100 µM

**Q.** What about the TGI [47] of the same compound?
**A.** > 100 µM

**Q.** What about the TGI [48] of the same compound?
**A.** > 100 µM

**Q.** What about the TGI [49] of the same compound?
**A.** > 100 µM

**Q.** What about the TGI [50] of the same compound?
**A.** > 100 µM

**Q.** And the TGI [52]?
**A.** > 100 µM

**Q.** What about the TGI [53] of the same compound?
**A.** > 100 µM

**Q.** And the TGI [54]?
**A.** > 100 µM

**Q.** And the TGI [55]?
**A.** > 100 µM

**Q.** And the TGI [59]?
**A.** > 100 µM

**Q.** What about the TGI [56] of the same compound?
**A.** > 100 µM

**Q.** And the TGI [57]?
**A.** > 100 µM

**Q.** What about the TGI [58] of the same compound?
**A.** > 100 µM
